Results as given in US20220053777A1, “NON-TOXIC ANT-REPELLING GEL” (priority 2013, published 2022).

Assay: Observation of polymerization (viscosity increase) of oleic acid with/without fumed silica and air
Format: physicochemical
Text: We can conclude that it is the addition of fumed silica to the oleic acid formula which is responsible for promoting this polymerization reaction. […] Based on chemical fundamentals we theorize that it is the fumed silica's high surface area that acts as the catalyst to increase the reaction between the oleic acid and oxygen in the air to promote oxidation, resulting in cross-linking, resulting in polymerization, resulting in an increase in viscosity and hardening. Since only some of the oleic acid molecules participate in this polymerization reaction, the rest of the oleic acid in the gel formulation is free to still act as an effective repellent.

Polymerization (Exposure to Air: Yes): No
increase in viscosity (polymerization) (exposed to air, temperatures normally encountered in the environment): no substantial increase in viscosity
Compound: CCCCCCCC/C=C\CCCCCCCC(=O)O [Oleic Acid, oleic acid]
